Assay results from patent US7879876B2, “Sulfonamide derivatives and use thereof for the modulation of metalloproteinases” (Merck Serono SA, priority 2005, dated 2011).

Experiments:
Type in all cases: biochemical
collagenase (MMP-1) = biological target: T1, collagenase (MMP-1) (Homo sapiens, UniProt P03956); assay: MMP-1 enzyme inhibition assay (coumarin-labelled peptide substrate); details: @ 5 μM; read-out: percentage inhibition MMP1
T1 sequence (P03956 100-469): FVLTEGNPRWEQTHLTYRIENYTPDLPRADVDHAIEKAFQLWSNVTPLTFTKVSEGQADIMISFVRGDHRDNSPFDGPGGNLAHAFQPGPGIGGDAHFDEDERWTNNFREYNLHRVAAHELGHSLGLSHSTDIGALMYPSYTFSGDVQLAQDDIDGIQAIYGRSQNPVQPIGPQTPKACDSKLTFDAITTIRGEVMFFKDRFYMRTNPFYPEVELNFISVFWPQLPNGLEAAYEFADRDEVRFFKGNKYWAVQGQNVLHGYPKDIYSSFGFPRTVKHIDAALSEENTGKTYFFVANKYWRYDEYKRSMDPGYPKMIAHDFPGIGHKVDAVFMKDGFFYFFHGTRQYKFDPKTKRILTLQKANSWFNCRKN
Procedure: (§1) Compounds of the invention were tested to assess their activities as inhibitors of MMP-1, MMP-2, MMP-9, MMP-14, MMP-12 and TACE. MMP-9 Assay Protocol
(§2) Compounds of the invention were tested for inhibitory activity against 92 kDa gelatinase (MMP-9) in an assay using a coumarin-labeled peptide substrate, (7-methoxycoumarin-4-yl)acetyl-Pro-Leu-Gly-Leu-(3-[2,4-dinitrophenyl]-L-2,3diaminopropionyl)-Ala-Arg-NH2 (McaPLGLDpaAR) (Knight et al, FEBS Lett. 1992; 263-266).
(§3) Stock solutions were made up as follows: Assay Butter: 100 mM Tris-HCl pH 7.6 containing 100 mM NaCl, 10 mM CaCl2, and 0.05% Brij 35.
(§4) Substrate: 0.4 mM McaPLGLDpaAR (from Bachem) (0.437 mg/ml) stock solution in 100% DMSO (stored at −20° C.). Dilute to 8 μM in assay butter.
(§5) Enzyme: Recombinant human 92 kDa gelatinase (MMP-9; APMA (4-aminophenyl mercuric acetate)-activated if necessary) appropriately diluted in assay butter.
(§6) Test Compounds were prepared initially as 10 mM compound solution in 100% DMSO, diluted to 1 mM in 100% DMSO, then serially diluted 3-fold in 100% DMSO across columns 1-10 of a 96-well microtitre plate Assay concentration range, 100 μM (column 1) to 5.1 nM (column 10).
(§7) The assay was performed in a total volume of 100 μL per well in 96-well microtitre plates. Activated enzyme (20 μL) was added to the wells followed by 20 μL of assay butter. Appropriate concentrations of test compounds dissolved in 10 μL of DMSO were then added followed by 50 μL of McaPLGLDpaAR (8 μM, prepared by dilution of DMSO stock in assay butter). For each as say ten concentrations of test compound were examined in duplicate. Control wells lack either enzyme or test compound. The reactions were incubated at 37° C. for 2 hours. The fluorescence at 405 nm was measured immediately with an SLT Fluostar fluorometer (SL T Labinstruments GmbH, Grödig, Austria) using 320 nm excitation, without stopping the reaction.
(§8) The effect of the test compound was determined from the dose response curve generated by the 10 duplicate concentrations of inhibitor. The IC50 (the concentration of compound required to give a 50% decrease in enzyme activity) was obtained by fitting data to the equation, Y=a+((b−a)/(1+(c/X)^d)). (Y=inhibition achieved for a particular dose; X=the dose in nM; a=minimum y or zero % inhibition; b=maximum y or 100% inhibition; c=is the IC50; d=is the slope). The result was rounded to one significant figure.
(§9) Compounds of the invention were tested for inhibitory activity against collagenase (MMP-1) in an assay using a coumarin-labelled peptide substrate, (7-methoxycoumarin-4-yl)acetyl-Pro-Leu-Gly-Leu-(3-[2,4-dinitrophenyl]-L-2,3diaminopropionyl)-Ala-Arg-NH2 (Mca PLGLDpaAR) (Knight et al, 1992, above). The protocol for this assay was as described for the MMP-9 assay above.

gelatinase A (MMP-2) = biological target: T2, gelatinase A (MMP-2) (Homo sapiens, UniProt P08253); assay: MMP-2 enzyme inhibition assay (coumarin-labelled peptide substrate); details: read-out: IC50 MMP2
T2 sequence (P08253 110-660): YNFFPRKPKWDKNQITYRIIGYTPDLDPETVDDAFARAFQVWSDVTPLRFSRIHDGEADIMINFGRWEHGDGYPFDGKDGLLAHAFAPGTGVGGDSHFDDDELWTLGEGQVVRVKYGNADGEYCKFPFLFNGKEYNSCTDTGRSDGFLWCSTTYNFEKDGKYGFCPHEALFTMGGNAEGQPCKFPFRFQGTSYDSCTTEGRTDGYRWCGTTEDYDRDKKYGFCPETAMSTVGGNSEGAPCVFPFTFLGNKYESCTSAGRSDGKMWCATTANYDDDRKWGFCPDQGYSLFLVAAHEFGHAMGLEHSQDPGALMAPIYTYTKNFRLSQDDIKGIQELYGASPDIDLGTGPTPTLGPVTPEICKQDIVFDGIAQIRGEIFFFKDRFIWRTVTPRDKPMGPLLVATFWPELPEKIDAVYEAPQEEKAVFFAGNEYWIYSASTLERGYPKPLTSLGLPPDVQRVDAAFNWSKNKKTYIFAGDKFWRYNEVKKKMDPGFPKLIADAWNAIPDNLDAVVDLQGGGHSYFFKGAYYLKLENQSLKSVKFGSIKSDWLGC
Procedure: Compounds of the invention were tested to assess their activities as inhibitors of MMP-1, MMP-2, MMP-9, MMP-14, MMP-12 and TACE. MMP-9 Assay Protocol […]
as §3
Substrate: 0.4 mM McaPLGLDpaAR (from Bachem) (0.437 mg/ml) stock solution in 100% DMSO (stored at −20° C.). Dilute to 8 μM in assay butter. […]
as §6, §7, §8
as §9, with “gelatinase A (MMP-2)” for “collagenase (MMP-1)”

[1] = biological target: 92 kDa gelatinase (MMP-9) (Homo sapiens, UniProt P14780); assay: MMP-9 enzyme inhibition assay (coumarin-labeled peptide substrate); details: read-out: IC50 MMP9
Procedure: as §1, §2, §3, §4, §5, §6, §7, §8

metalloelastase (MMP-12) = metalloelastase (MMP-12) (Homo sapiens, UniProt P39900); assay: MMP-12 enzyme inhibition assay (coumarin-labelled peptide substrate); details: read-out: IC50 MMP12
Procedure: as §1, §2, §3, §4, §5, §6, §7, §8
Compounds of the invention were tested for inhibitory activity against metalloelastase (MMP-12) in an assay using a coumarin-labelled peptide substrate, (7-methoxycoumarin-4-yl)acetyl-Pro-Leu-Gly-Leu-(3-[2,4-dinitrophenyl]-L-2,3-diaminopropionyl)-Ala-Arg-NH2 (McaPLGLDpaAR) (Knight et al, 1992, above). The protocol for this assay was as described for the MMP-9 assay above.

MMP13 = MMP13 (Homo sapiens, UniProt P45452); assay: MMP13 inhibition (Table 1); details: @ 5 μM; read-out: percentage inhibition MMP13
MMP-14 = MMP-14 (Homo sapiens, UniProt P50281); assay: MMP-14 enzyme inhibition assay (coumarin-labelled peptide substrate); details: @ 5 μM; read-out: percentage inhibition MMP14
Procedure: as §1, §2, §3, §4, §5, §6, §7, §8
as §9, with “MMP-14” for “collagenase (MMP-1)”, “PLGLD paAR)” for “PLGLDpaAR)”

Sequence of metalloelastase (MMP-12) (P39900 106-470): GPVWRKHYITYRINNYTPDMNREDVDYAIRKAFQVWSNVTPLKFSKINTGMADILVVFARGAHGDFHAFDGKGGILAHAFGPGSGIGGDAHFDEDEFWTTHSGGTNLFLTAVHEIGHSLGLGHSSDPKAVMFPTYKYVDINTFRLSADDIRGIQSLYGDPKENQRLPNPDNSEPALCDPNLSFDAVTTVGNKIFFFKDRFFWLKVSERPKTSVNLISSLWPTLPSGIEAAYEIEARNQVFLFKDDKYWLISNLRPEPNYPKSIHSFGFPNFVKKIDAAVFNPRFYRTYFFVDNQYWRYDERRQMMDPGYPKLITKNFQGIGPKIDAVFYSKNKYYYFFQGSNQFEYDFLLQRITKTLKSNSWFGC
Sequence of 92 kDa gelatinase (MMP-9) (P14780 107-707 limits assumed): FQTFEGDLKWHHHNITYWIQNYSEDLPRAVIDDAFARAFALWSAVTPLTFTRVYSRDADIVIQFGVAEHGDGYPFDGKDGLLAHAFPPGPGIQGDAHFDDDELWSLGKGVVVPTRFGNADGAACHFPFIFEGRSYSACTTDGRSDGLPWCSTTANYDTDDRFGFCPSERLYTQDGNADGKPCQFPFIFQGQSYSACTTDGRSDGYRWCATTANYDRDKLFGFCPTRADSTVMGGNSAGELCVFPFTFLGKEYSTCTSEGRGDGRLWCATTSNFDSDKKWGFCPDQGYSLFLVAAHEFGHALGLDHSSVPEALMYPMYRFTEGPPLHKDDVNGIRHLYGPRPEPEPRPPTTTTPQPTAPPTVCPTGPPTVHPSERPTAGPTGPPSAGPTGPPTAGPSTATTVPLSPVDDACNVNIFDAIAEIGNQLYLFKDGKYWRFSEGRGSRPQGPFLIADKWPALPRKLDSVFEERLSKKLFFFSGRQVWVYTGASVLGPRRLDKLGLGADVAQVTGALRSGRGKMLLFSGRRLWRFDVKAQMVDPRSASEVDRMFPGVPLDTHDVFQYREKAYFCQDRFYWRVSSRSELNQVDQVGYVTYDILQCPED

**Q.** Which inhibition at 5 µM (collagenase (MMP-1)) does the source give for CC(C)(C(CS(=O)(=O)N1CCc2ccccc2C1)N(O)C=O)N1CCOCC1 (stereo not drawn) [Example 8, N-{1-[(3,4-dihydroisoquinolin-2(1H)-ylsulfonyl)methyl]-2-methyl-2-morpholin-4-ylpropyl}-N-hydroxyformamide] here?
**A.** The inhibition at 5 µM was 5%.

**Q.** What about the IC50 (gelatinase A (MMP-2)) of the same compound?
**A.** Its IC50 is > 5 µM.

**Q.** What about the IC50 [1] of the same compound?
**A.** The IC50 was > 5 µM.

**Q.** What about the IC50 (metalloelastase (MMP-12)) of the same compound?
**A.** Its IC50 is 0.627 µM.

**Q.** And the inhibition at 5 µM (MMP13)?
**A.** The inhibition at 5 µM was 41%.

**Q.** What about the inhibition at 5 µM (MMP-14) of the same compound?
**A.** The inhibition at 5 µM was 8%.
